Experimental data as given in PubChem BioAssay (NCI).
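96-well plates; 48 h exposure; 5 concentrations. Endpoints by linear interpolation between flanking doses. Not reached: highest tested concentration assigned. The concentration for full growth arrest is given as TGI.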

Experiments:
Assay in all cases: DTP human tumour cell line panel, 48 h
[1] = tested on: UO-31 renal
[2] = tested on: UACC-62 melanoma
[3] = tested on: OVCAR-3 ovarian
[4] = tested on: MALME-3M melanoma
[5] = tested on: MCF7 breast
[6] = tested on: KM12 colon
[7] = tested on: SK-MEL-5 melanoma
[8] = tested on: CAKI-1 renal
[9] = tested on: IGROV1 ovarian
[10] = tested on: SNB-19 CNS
[11] = tested on: RXF 393 renal
[12] = tested on: ACHN renal
[13] = tested on: MDA-N
[14] = tested on: SNB-75 CNS
[15] = tested on: HOP-62 NSCLC
[16] = tested on: OVCAR-8 ovarian
[17] = tested on: SW-620 colon
[18] = tested on: SR leukemia
[19] = tested on: NCI-H522 lung
[20] = tested on: COLO 205 colon
[21] = tested on: BT-549 breast
[22] = tested on: OVCAR-4 ovarian
[23] = tested on: M14 melanoma
[24] = tested on: A549 NSCLC
[25] = tested on: HT29 colon
[26] = tested on: MOLT-4 leukemia
[27] = tested on: 786-0 renal
[28] = tested on: U251 CNS
[29] = tested on: MDA-MB-231 breast
[30] = tested on: HCC-2998 colon
[31] = tested on: SF-539 CNS
[32] = tested on: RPMI-8226 leukemia
[33] = tested on: SK-MEL-2 melanoma
[34] = tested on: HOP-92 NSCLC
[35] = tested on: TK-10 renal
[36] = tested on: NCI-H226 lung
[37] = tested on: UACC-257 melanoma
[38] = tested on: A498 renal
[39] = tested on: SF-268 CNS
[40] = tested on: HL-60(TB) leukemia
[41] = tested on: K-562 leukemia
[42] = tested on: SK-MEL-28 melanoma
[43] = tested on: SN12C renal
[44] = tested on: NCI-H460 lung
[45] = tested on: SF-295 CNS
[46] = tested on: HCT-15 colon
[47] = tested on: SK-OV-3 ovarian
[48] = tested on: NCI/ADR-RES ovarian
[49] = tested on: NCI-H23 lung
[50] = tested on: DU-145 prostate
[51] = tested on: HCT-116 colon
[52] = tested on: HS 578T breast
[53] = tested on: MDA-MB-435
[54] = tested on: PC-3 prostate
[55] = tested on: LOX IMVI melanoma
[56] = tested on: OVCAR-5 ovarian
[57] = tested on: EKVX NSCLC
[58] = tested on: T-47D breast
[59] = tested on: CCRF-CEM leukemia

Measured: TGI

COCOc1cc(OCOC)cc(C(=O)Oc2ccccc2)c1
not listed: [59]
> 100 µM: all other assays above

CC1=C(O)C(=O)C(C2=C(O)C(=O)C(C)=C(O)C2=O)=C(O)C1=O
46.6 µM: [4]
92.1 µM: [34]
67.9 µM: [7]
54 µM: [2]
not listed: [24] | [33] | [35]
> 100 µM: all other assays above

CCOC(=O)C1C(O)CC2c3ccccc3-c3ccccc3C21 (stereo not given)
75.5 µM: [28]
67.1 µM: [14]
91.2 µM: [15]
45.5 µM: [47]
41.4 µM: [51]
48.1 µM: [16]
68.9 µM: [38]
89 µM: [27]
60.6 µM: [52]
75 µM: [34]
60.1 µM: [36]
not listed: [30] | [31]
> 100 µM: all other assays above

CN(C)C1C(=O)C(C(=O)NCN2CCCC2)=C(O)C2(O)C(=O)C3=C(O)c4c(O)cccc4C(C)(O)C3CC12 (stereo not given)
48.7 µM: [4]
not listed: [30] | [31] | [44]
> 100 µM: all other assays above

CC#CC#C/C=C1/O[C@]2(CCC(OC(=O)CC(C)C)CO2)[C@@H]2O[C@H]12 (stereo not given in full)
37.4 µM: [19]
54.1 µM: [39]
48.3 µM: [58]
66.6 µM: [2]
53.1 µM: [46]
56.3 µM: [21]
47.7 µM: [4] | [23]
72.9 µM: [56]
49.3 µM: [27]
60 µM: [49]
41.2 µM: [43]
64.4 µM: [48]
52.3 µM: [3]
72.5 µM: [54]
33.3 µM: [51]
84.3 µM: [57]
66 µM: [34]
54.6 µM: [26] | [28]
54.3 µM: [13]
43.7 µM: [17]
27.5 µM: [59]
60.4 µM: [53]
42.9 µM: [40]
34.7 µM: [8]
44.7 µM: [12]
35.9 µM: [55]
42.2 µM: [11]
61.3 µM: [35]
37.5 µM: [30]
62.7 µM: [29]
50.3 µM: [32]
35.4 µM: [25]
36.5 µM: [1]
52.5 µM: [33]
not listed: [7] | [20] | [31] | [36] | [42] | [45]
> 100 µM: all other assays above
